Experimental data as given in ChEMBL document CHEMBL1141417, “2,6,8-trisubstituted 1-deazapurines as adenosine receptor antagonists” (J Med Chem, 2007).

Key:
Adenosine receptor A2a [1] = biological target: T1, Adenosine receptor A2a (Homo sapiens, UniProt P29274); test: Displacement of [3H]ZM-241385 from human adenosine A2A receptor expressed in CHO cells; type: cell-based
Adenosine receptor A3 = biological target: T2, Adenosine receptor A3 (Homo sapiens, UniProt P0DMS8); test: Displacement of [125I]AB-MECA from human adenosine A3 receptor expressed in CHO cells; type: cell-based
T2 sequence (P0DMS8 whole entry): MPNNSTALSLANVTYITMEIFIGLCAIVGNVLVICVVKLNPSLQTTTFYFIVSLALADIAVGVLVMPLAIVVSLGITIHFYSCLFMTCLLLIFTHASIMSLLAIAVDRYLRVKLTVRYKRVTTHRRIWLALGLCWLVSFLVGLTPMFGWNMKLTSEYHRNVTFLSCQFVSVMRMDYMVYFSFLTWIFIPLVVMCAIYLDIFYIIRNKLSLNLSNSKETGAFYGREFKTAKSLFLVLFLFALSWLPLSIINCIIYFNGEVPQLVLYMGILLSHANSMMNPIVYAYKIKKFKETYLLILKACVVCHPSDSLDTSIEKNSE

[2] = biological target: Adenosine receptors; A1 & A2a (Homo sapiens) (UniProt P30542+P29274); test: Selectivity for human adenosine A1 receptor over human adenosine A2A receptor; type: protein assay
Adenosine receptor A1 [3] = biological target: T3, Adenosine receptor A1 (Homo sapiens, UniProt P30542); test: Displacement of [3H]DPCPX from human adenosine A1 receptor expressed in CHO cells; type: cell-based
T3 sequence (P30542 whole entry): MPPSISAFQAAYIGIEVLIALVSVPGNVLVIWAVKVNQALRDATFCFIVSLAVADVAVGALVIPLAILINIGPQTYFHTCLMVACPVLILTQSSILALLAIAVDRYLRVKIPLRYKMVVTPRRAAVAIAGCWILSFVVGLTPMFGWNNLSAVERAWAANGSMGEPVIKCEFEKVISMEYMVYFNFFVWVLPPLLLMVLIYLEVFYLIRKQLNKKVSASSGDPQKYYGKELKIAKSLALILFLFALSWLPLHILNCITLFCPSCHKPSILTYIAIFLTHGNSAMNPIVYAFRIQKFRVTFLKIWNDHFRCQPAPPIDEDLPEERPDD

[4] = biological target: T4, Adenosine receptor A1 (Homo sapiens) (UniProt P30542); test: Activity at human adenosine A1 receptor expressed in CHO cells assessed as effect on forskolin-stimulated cAMP production at 100 nM; type: functional, cell-based
T4 sequence (whole entry): T3 sequence (P30542 whole entry)

[5] = biological target: T4, Adenosine receptor A1 (Homo sapiens); test: Activity at human adenosine A1 receptor in CHO cells assessed as effect on CPA induced inhibition of forskolin-stimulated cAMP production at 1 uM; type: functional, cell-based; conditions: filed as antagonist
[6] = biological target: Adenosine receptors; A1 & A3 (Homo sapiens) (UniProt P30542+P0DMS8); test: Selectivity for human adenosine A1 receptor over human adenosine A3 receptor; type: protein assay
[7] = biological target: T5, Adenosine receptor A3 (Homo sapiens) (UniProt P0DMS8); test: Displacement of [125I]AB-MECA from human adenosine A3 receptor expressed in CHO cells at 1 uM; type: cell-based
T5 sequence (whole entry): T2 sequence (P0DMS8 whole entry)

Adenosine receptor A2a [8] = biological target: T1, Adenosine receptor A2a; test: Displacement of [3H]ZM241385 from human adenosine A2A receptor expressed in CHO cells at 1 uM; type: cell-based
[9] = biological target: T4, Adenosine receptor A1 (Homo sapiens); test: Displacement of [3H]DPCPX from human adenosine A1 receptor expressed in CHO cells at 1 uM; type: cell-based
Adenosine receptor A1 [10] = biological target: T3, Adenosine receptor A1; test: Activity at human adenosine A1 receptor in CHO cells assessed as effect on CPA induced inhibition of forskolin-stimulated cAMP production; type: functional, cell-based
[11] = biological target: T4, Adenosine receptor A1 (Homo sapiens); test: Activity at human adenosine A1 receptor expressed in CHO cells assessed as effect on forskolin-stimulated cAMP production at 100 uM; type: functional, cell-based; conditions: filed as inverse agonist

T1 sequence (P29274 whole entry): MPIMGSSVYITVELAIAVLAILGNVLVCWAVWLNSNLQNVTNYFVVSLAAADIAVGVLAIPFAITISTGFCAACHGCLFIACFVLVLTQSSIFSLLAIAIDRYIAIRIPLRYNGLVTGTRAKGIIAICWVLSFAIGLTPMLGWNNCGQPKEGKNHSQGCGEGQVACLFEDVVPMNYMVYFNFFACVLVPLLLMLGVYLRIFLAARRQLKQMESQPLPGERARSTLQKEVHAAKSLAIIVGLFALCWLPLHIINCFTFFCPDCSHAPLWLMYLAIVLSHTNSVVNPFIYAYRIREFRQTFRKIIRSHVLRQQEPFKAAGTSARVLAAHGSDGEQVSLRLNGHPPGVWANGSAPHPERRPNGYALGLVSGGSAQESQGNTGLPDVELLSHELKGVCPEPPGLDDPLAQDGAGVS
Adenosine receptors; A1 & A2a (Homo sapiens), sequence (P29274 whole entry, looked up, one chain of several): as the sequence (P29274 whole entry) above

Ki (Adenosine receptor A2a [1])	Ki (Adenosine receptor A3)	Ratio Ki [2]	Ki (Adenosine receptor A1 [3])	Activity ([4]; filed as inverse agonist)	Activity [5]	SMILES	also measured
39 nM (antagonist)	180 nM (antagonist)	33	1.2 nM (antagonist)			c1ccc(-c2cc(-c3ccccc3)c3nc[nH]c3n2)cc1	
177 nM (antagonist)	8.5 nM (antagonist)		2.4 nM (antagonist)			CCc1nc2c(-c3ccccc3)cc(-c3ccccc3)nc2[nH]1	
1050 nM	115 nM (antagonist)		5.5 nM (antagonist)			CC(C)(C)c1nc2c(-c3ccccc3)cc(-c3ccccc3)nc2[nH]1	
189 nM (antagonist)	25 nM (antagonist)	> 300	0.55 nM (antagonist)	Inverse agonist	Antagonist	CC(C)Cc1nc2c(-c3ccccc3)cc(-c3ccccc3)nc2[nH]1	Ratio Ki [6]: 45
247 nM (antagonist)	171 nM (antagonist)		0.87 nM (antagonist)	Inverse agonist	Antagonist	CCC(CC)c1nc2c(-c3ccccc3)cc(-c3ccccc3)nc2[nH]1	Ratio Ki [6]: 199
	6.9 nM (antagonist)	> 1600		Inverse agonist	Antagonist	c1ccc(-c2cc(-c3ccccc3)c3nc(C4CCCC4)[nH]c3n2)cc1	inhibition (Adenosine receptor A2a [8]): 49%
230 nM (antagonist)	7.3 nM (antagonist)	377		Inverse agonist	Antagonist	CC(C)c1nc2c(-c3ccccc3)cc(-c3ccccc3)nc2[nH]1	

The next lines start with the compound.

SMILES	Ki (Adenosine receptor A2a [1])	Ki (Adenosine receptor A3)	Ratio Ki [2]	Ki (Adenosine receptor A1 [3])	Activity ([4]; filed as inverse agonist)	Activity [5]	also measured
CCCc1nc2c(-c3ccccc3)cc(-c3ccccc3)nc2[nH]1	114 nM (antagonist)	69 nM (antagonist)		2.5 nM (antagonist)			
O=c1[nH]c2nc(-c3ccccc3)cc(-c3ccccc3)c2[nH]1	192 nM (antagonist)	262 nM (antagonist)		8.6 nM (antagonist)			
c1ccc(Cn2cnc3c(-c4ccccc4)cc(-c4ccccc4)nc32)cc1							inhibition [7]: 15%; inhibition (Adenosine receptor A2a [8]): 2%; inhibition [9]: 38%
c1ccc(-c2cc(-c3ccccc3)c3nc(C4CCCCC4)[nH]c3n2)cc1	194 nM (antagonist)	637 nM (antagonist)	215		Inverse agonist	Antagonist	Ratio Ki [6]: 718; IC50 (Adenosine receptor A1 [10]): 1700 nM (antagonist)
Cn1cnc2c(NC3CCCC3)ncnc21							Activity [11]: Inverse agonist
CCc1nc2c(C)cc(C)nc2[nH]1				101 nM (antagonist)			inhibition [7]: 49%; inhibition (Adenosine receptor A2a [8]): 8%
OC[C@H]1O[C@@H](n2cnc3c(NC4CCCC4)ncnc32)[C@H](O)[C@@H]1O							Activity ([4]; filed as agonist): Agonist
c1cnc2[nH]c(C3CCCC3)nc2c1							inhibition [7]: 0%; inhibition (Adenosine receptor A2a [8]): 3%; inhibition [9]: 6%
Cc1nc2c(-c3ccccc3)cc(-c3ccccc3)nc2[nH]1	375 nM (antagonist)	61 nM (antagonist)					
